Measurements taken from ChEMBL document CHEMBL5356996, “Discovery of Novel NLRP3 Inflammasome Inhibitors Composed of an Oxazole Scaffold Bearing an Acylsulfamide” (ACS Med Chem Lett, 2023).
In brackets after ≈: the same amount, converted by molar mass.

Legend:
[1] = Lipophilicity, logD of the compound; type: physicochemical; conditions: octanol/water
[2] = Solubility of the compound in FaSSIF at pH 6.5 incubated for 4 to 24 hrs by LC/MS analysis; type: physicochemical; conditions: time 4-24 hrs
[3] = target: T1, NACHT, LRR and PYD domains-containing protein 3 (Homo sapiens, UniProt Q96P20); assay: Inhibition of NLRP3 in human whole blood assessed as inhibition of IL-1beta production pretreated with LPS for 3 hrs followed by incubation with compound for 0.5 hrs and later incubated with ATP for 1.5 hrs by AlphaLISA assay; type: tissue-based
T1 sequence (Q96P20 whole entry, the tested form may be a part): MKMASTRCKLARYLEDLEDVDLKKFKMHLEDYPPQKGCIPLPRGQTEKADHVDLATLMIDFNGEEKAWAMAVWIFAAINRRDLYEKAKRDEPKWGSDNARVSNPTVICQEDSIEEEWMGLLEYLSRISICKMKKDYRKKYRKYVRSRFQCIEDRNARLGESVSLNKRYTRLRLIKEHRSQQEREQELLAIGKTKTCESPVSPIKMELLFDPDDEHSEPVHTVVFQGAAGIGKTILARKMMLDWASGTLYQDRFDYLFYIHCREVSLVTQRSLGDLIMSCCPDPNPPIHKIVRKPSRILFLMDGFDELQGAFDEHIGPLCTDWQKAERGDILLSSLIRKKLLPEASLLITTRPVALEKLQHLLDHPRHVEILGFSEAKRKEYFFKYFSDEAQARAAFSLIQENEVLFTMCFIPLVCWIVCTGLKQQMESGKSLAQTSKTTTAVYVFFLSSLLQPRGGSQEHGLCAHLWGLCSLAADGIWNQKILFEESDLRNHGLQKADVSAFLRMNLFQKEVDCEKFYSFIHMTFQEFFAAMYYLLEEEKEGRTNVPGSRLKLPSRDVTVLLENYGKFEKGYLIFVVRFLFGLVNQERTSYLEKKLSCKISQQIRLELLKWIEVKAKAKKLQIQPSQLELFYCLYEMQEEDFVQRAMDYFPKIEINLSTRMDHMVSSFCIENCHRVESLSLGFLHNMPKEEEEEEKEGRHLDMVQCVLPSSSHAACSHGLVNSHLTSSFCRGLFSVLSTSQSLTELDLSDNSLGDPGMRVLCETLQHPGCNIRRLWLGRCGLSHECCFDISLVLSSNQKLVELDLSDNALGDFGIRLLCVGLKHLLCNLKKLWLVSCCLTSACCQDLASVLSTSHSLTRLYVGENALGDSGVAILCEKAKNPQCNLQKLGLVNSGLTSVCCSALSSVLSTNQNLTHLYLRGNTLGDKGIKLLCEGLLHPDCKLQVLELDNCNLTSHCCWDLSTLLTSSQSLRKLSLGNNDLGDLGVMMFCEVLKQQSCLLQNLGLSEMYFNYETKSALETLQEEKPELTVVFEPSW

[4] = Apparent permeability of the compound in human Caco-2 cells at 25 umol/L incubated for 2 hrs by LC/MS/MS analysis; type: ADME, cell-based; conditions: dose 25 µmol/L
[5] = target: T1, NACHT, LRR and PYD domains-containing protein 3; assay: Inhibition of NLRP3 in LPS/nigericin-induced human THP-1 cells assessed as inhibition of IL-1beta production pretreated with LPS for 3 hrs followed by incubation with compound for 15 mins and later stimulated with nigericin for 90 mins by AlphaLISA assay; type: cell-based
[6] = Plasma protein binding in human by equilibrium dialysis method; type: ADME, cell-free; conditions: read-out: PPB (converted)
[7] = Metabolic stability in rat liver microsomes assessed as compound remaining incubated for 60 mins; type: ADME, Microsome; conditions: read-out: Stability
THP-1 = assay: cells; conditions: Homo sapiens
[8] = Plasma protein binding in mouse by equilibrium dialysis method; type: ADME, cell-free; conditions: read-out: PPB (converted)
Mus musculus [9] = assay: Anti-inflammatory activity against LPS-stimulated C57BL/6J mouse assessed as reduction in IL-1beta level administered orally pretreated for 0.5 hrs before LPS challenge and measured after 4 hrs by ELISA; type: functional, organism-based; conditions: dose 1-10 mg/kg, route po, time 4.5 hrs
[10] = target: NLR family CARD domain-containing protein 4 (Homo sapiens, UniProt Q9NPP4); assay: Inhibition of NLRC4 (unknown origin) in PMA-differentiated human THP-1 cells assessed as inhibition of IL-1 beta production pretreated for 15 mins followed by flagellin stimulation and measured after 18 hrs by AlphaLISA assay; type: cell-based
NLR family CARD domain-containing protein 4, sequence (Q9NPP4 whole entry, the tested form may be a part): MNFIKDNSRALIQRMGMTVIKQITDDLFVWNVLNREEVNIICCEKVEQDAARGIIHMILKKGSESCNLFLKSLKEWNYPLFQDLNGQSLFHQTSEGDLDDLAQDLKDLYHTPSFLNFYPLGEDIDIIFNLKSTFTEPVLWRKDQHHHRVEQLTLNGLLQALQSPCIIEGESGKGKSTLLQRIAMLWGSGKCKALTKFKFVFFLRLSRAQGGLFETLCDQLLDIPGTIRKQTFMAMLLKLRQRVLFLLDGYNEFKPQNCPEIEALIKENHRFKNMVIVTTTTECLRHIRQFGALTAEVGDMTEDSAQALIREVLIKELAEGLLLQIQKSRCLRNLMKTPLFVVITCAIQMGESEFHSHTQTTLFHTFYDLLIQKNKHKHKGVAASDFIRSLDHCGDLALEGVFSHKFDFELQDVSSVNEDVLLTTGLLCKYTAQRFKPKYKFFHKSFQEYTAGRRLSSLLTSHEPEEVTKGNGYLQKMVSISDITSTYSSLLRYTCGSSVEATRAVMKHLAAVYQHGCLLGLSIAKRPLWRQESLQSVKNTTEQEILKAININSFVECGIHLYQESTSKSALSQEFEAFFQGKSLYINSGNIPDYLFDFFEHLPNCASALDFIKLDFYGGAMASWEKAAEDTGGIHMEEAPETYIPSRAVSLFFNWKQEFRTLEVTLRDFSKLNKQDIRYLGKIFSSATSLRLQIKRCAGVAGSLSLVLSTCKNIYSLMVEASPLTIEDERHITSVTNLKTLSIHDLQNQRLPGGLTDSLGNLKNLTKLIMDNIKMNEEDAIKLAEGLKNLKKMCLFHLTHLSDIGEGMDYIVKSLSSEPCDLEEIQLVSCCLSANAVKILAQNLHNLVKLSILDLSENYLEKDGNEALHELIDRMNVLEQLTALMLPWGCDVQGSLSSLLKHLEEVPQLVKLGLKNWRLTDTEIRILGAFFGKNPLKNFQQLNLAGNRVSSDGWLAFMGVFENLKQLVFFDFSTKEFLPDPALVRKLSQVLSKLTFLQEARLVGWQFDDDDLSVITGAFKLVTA

[11] = Oral bioavailability in Sprague-Dawley rat at 1 mg/kg measured for 25 hrs; type: ADME, organism-based; conditions: in vivo
Cytochrome P450 3A4 = Cytochrome P450 3A4 (Homo sapiens, UniProt P08684); assay: Inhibition of CYP3A4 in human liver microsomes using testosterone and midazolam as substrates by LC-MS/MS analysis; type: ADME, Microsome
Cytochrome P450 3A4, sequence (P08684 whole entry): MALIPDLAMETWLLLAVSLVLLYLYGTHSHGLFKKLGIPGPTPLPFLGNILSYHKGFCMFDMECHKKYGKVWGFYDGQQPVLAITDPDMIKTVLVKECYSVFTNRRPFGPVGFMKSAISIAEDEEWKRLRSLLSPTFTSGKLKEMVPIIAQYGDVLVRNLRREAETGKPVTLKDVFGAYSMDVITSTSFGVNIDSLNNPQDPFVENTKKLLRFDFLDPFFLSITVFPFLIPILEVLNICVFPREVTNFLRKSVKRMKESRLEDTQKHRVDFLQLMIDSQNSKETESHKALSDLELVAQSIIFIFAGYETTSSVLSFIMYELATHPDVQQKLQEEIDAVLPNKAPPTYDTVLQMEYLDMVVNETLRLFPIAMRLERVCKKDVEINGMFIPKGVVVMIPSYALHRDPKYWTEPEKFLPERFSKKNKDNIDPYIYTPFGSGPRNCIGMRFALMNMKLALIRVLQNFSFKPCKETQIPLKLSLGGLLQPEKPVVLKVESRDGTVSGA

[12] = Cmax in Sprague-Dawley rat at 1 mg/kg, po measured for 25 hrs; type: ADME, organism-based; design: dose 1 mg/kg, time 25 hrs, route po; conditions: in vivo
[13] = Plasma protein binding in rat by equilibrium dialysis method; type: ADME, cell-free; conditions: read-out: PPB (converted)
Mus musculus [14] = assay: Anti-inflammatory activity against adriamycin-induced glomerulonephritis BALB/c mouse model assessed as decrease in urine albumin-to-creatinine ratio administered orally for 2 weeks and measured for 24 hrs; type: functional, organism-based; conditions: dose 30-300 mg/kg, route po, time 15.0 day
[15] = Volume of distribution at steady state in Sprague-Dawley rat at 0.3 mg/kg, iv measured for 25 hrs; type: ADME, organism-based; conditions: in vivo, read-out: Vdss
[16] = Metabolic stability in dog liver microsomes assessed as compound remaining incubated for 60 mins; type: ADME, Canis lupus familiaris, Microsome; conditions: read-out: Stability
[17] = Total body clearance in Sprague-Dawley rat at 0.3 mg/kg, iv measured for 25 hrs; type: ADME, organism-based; conditions: in vivo
[18] = Mean residence time in Sprague-Dawley rat at 1 mg/kg, po; type: ADME, organism-based; conditions: in vivo
[19] = Mean residence time in Sprague-Dawley rat at 0.3 mg/kg, iv; type: ADME, organism-based; conditions: in vivo
[20] = Metabolic stability in mouse liver microsomes assessed as compound remaining incubated for 60 mins; type: ADME, Microsome; conditions: read-out: Stability
[21] = Metabolic stability in human liver microsomes assessed as compound remaining incubated for 60 mins; type: ADME, Microsome; conditions: read-out: Stability

| logD [1] | solubility [2] [µM] | IC50 [5] [µM] | Compound | other results |
| --- | --- | --- | --- | --- |
| 2.8 | 436 (≈ 170 µg/mL) | – | CN(C)S(=O)(=O)NC(=O)c1coc(Nc2c3c(cc4c2CCC4)CCC3)n1 | IC50 [3]: 7.8 µM; Papp at 2 h, 25 µM [4]: 48.5 ×10⁻⁶ cm/s |
| – | – | > 30 | CCOC(=O)c1cnc(Nc2c3c(cc4c2CCC4)CCC3)[nH]1 | – |
| 4.6 | 11.1 (≈ 3.47 µg/mL) | – | CCOC(=O)c1cnc(Nc2c3c(cc4c2CCC4)CCC3)o1 | – |
| 2.4 | – | – | Cc1ccc(C(F)(F)F)cc1Nc1nc(C(=O)NS(=O)(=O)N(C)C)co1 | fraction unbound [6]: 0.004 |
| – | 43.9 (≈ 13.1 µg/mL) | > 30 | CNC(=O)c1cnc(Nc2c3c(cc4c2CCC4)CCC3)o1 | – |
| 2.4 | 444 (≈ 199 µg/mL) | – | Cc1ccc(C(F)(F)F)cc1Nc1nc(C(=O)NS(=O)(=O)N2CCCOCC2)co1 | remaining at 1 h [7]: 90.3%; IC50 (THP-1): 0.028 µM; fraction unbound [8]: 0.062; Activity (Mus musculus [9]): Dose-Dependent Effect; fraction unbound [6]: 0.009; IC50 [10]: > 30 µM; bioavailability [11]: 121%; IC50 (Cytochrome P450 3A4): > 10 µM; Cmax [12]: 3.8 µM; fraction unbound [13]: 0.034; Activity (Mus musculus [14]): Dose-Dependent Effect; Vd [15]: 0.28 L/kg; remaining at 1 h [16]: 90%; clearance [17]: 1 mL/min/kg; MRT [18]: 6.3 h; MRT [19]: 4.7 h; remaining at 1 h [20]: 45.5%; remaining at 1 h [21]: 71.2%; Papp at 2 h, 25 µM [4]: 27.8 ×10⁻⁶ cm/s |
| 3 | – | – | Cc1ccc(C(C)(C)C)cc1Nc1nc(C(=O)NS(=O)(=O)N(C)C)co1 | IC50 [3]: 7.7 µM |
| – | – | 8.9 | CCOC(=O)c1nnc(Nc2c3c(cc4c2CCC4)CCC3)o1 | – |
| 2.3 | – | – | Cc1ccc2c(c1Nc1nc(C(=O)NS(=O)(=O)N(C)C)co1)CCC2 | IC50 [3]: 18 µM |
| 3.1 | – | – | Cc1ccc(C(F)(F)F)cc1Nc1nc(C(=O)NS(=O)(=O)N2CCCCC2)co1 | fraction unbound [6]: < 0.001 |
| 2.7 | – | 0.14 | Cc1ccc(C(C)C)cc1Nc1nc(C(=O)NS(=O)(=O)N(C)C)co1 | IC50 [3]: 6.8 µM |
| 2 | – | 0.51 | Cc1ccc(C)c(Nc2nc(C(=O)NS(=O)(=O)N(C)C)co2)c1 | IC50 [3]: 11 µM |
| – | – | > 30 | CCOC(=O)c1cnc(Nc2c3c(cc4c2CCC4)CCC3)s1 | – |
| 2.2 | – | – | CC(=O)N1CCCN(S(=O)(=O)NC(=O)c2coc(Nc3cc(C(F)(F)F)ccc3C)n2)CC1 | fraction unbound [6]: 0.018 |
| 2.4 | – | – | Cc1ccc(C(F)(F)F)cc1Nc1nc(C(=O)NS(=O)(=O)N2CCCN(S(C)(=O)=O)CC2)co1 | fraction unbound [6]: 0.011 |
| 2.9 | – | – | Cc1ccc(C2CCC2)cc1Nc1nc(C(=O)NS(=O)(=O)N(C)C)co1 | – |
| 1.8 | 442 (≈ 126 µg/mL) | 2.4 | O=C(O)c1cnc(Nc2c3c(cc4c2CCC4)CCC3)o1 | Papp at 2 h, 25 µM [4]: 4 ×10⁻⁶ cm/s |
| – | – | > 30 | COC(=O)c1ccnc(Nc2c3c(cc4c2CCC4)CCC3)n1 | – |
| – | – | > 10 | COC(=O)[C@@H]1CCCN1C(=O)Nc1c2c(cc3c1CCC3)CCC2 | – |
| 2.2 | – | 0.038 | Cc1ccc(C(F)(F)F)cc1Nc1nc(C(=O)NS(=O)(=O)N2CCOCC2)co1 | fraction unbound [6]: < 0.001; IC50 [3]: 8 µM |
| 2.1 | 475 (≈ 172 µg/mL) | 6.8 | CS(=O)(=O)NC(=O)c1cnc(Nc2c3c(cc4c2CCC4)CCC3)o1 | Papp at 2 h, 25 µM [4]: 0.13 ×10⁻⁶ cm/s |
| – | 45.6 (≈ 12.9 µg/mL) | > 30 | NC(=O)c1cnc(Nc2c3c(cc4c2CCC4)CCC3)o1 | – |
| 3.8 | 18.1 (≈ 7.28 µg/mL) | – | CN1CCN(C(=O)c2cnc(Nc3c4c(cc5c3CCC5)CCC4)o2)S1(=O)=O | Papp at 2 h, 25 µM [4]: 15.5 ×10⁻⁶ cm/s |
| – | – | > 10 | COC(=O)[C@H]1CCCN1C(=O)Nc1c2c(cc3c1CCC3)CCC2 | – |
| 3.3 | – | – | Cc1ccc(C(F)(F)F)cc1Nc1nc(C(=O)NS(=O)(=O)N(C)C(C)C)co1 | fraction unbound [6]: < 0.001 |
| 2.3 | > 475 | – | CN(C)S(=O)(=O)NC(=O)c1cnc(Nc2c3c(cc4c2CCC4)CCC3)o1 | Papp at 2 h, 25 µM [4]: 1.2 ×10⁻⁶ cm/s |
| 2.1 | – | – | Cc1ccc(C(F)(F)F)nc1Nc1nc(C(=O)NS(=O)(=O)N(C)C)co1 | IC50 [3]: 4.7 µM |
| – | – | > 30 | COC(=O)CN1CC(=O)N(c2c3c(cc4c2CCC4)CCC3)C1=O | – |
| 2.9 | – | – | CC(C)c1ccc2c(c1Nc1nc(C(=O)NS(=O)(=O)N(C)C)co1)CCC2 | IC50 [3]: 5.8 µM |
